Earlier results on one compound are cited in patent US11702444B2, “Method for preparing natural bioactive peptide Tubulysin U” (Shenzhen Institute of Geriatrics, priority 2020, dated 2023).

For series [1], the system named is 1A9 ovarian cancer cells. The conditions noted are these: antiproliferative activity in vitro.
Series [2] relates to MCF-7 breast cancer cells. Conditions: antiproliferative activity in vitro.

SMILES strings stand for the structures.

The IC50 is the concentration at which inhibition is half-maximal. As to `CC[C@H](C)[C@H](NC(=O)[C@H]1CCCCN1C)C(=O)N[C@H](C[C@@H](OC(C)=O)c1nc(C(=O)N[C@@H](Cc2ccccc2)C[C@H](C)C(=O)O)cs1)C(C)C` [Tubulysin U], the IC50 in series [1] is 0.65 nM; in series [2] it was 0.4 nM.
